Measured values from patent publication US20230391766A1, “1-(2-(4-CYCLOPROPYL-1H-1,2,3-TRIAZOL-1-YL)ACETYL)-4-HYDROXY-N-(BENZYL)PYRROLIDIN E-2-CARBOXAMIDE DERIVATIVES AS VHL INHIBITORS FOR THE TREATMENT OF ANEMIA AND CANCER” (Genentech, Inc., priority 2020, published 2023).

Assays:
VHL [1] = molecular target: T1, VHL (Homo sapiens, UniProt P40337); assay: VHL HEK-293 BRET Assay (VHL NanoBRET Target Engagement Assay); assay type: cell-based; conditions: for IC50: HEK 293 RT VHL-NanoLuc stable cells, 1 uM tracer, 2 hours, geometric mean where more than one measurement, read-out: VHL binding in cells (HEK293 nanoBRET); for Ratio cell permeability shift: ratio not defined
T1 construct: expressed in transfected cells
T1 sequence (P40337 whole entry): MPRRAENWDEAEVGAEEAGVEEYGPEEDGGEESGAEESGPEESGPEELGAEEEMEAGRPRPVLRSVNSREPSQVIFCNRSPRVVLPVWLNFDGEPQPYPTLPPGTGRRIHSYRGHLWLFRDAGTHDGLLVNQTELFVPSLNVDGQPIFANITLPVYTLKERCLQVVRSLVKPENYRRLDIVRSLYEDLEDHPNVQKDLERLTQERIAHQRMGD
Method: (§1) The VHL NanoBRET™ Target Engagement Assay analyzes the apparent affinity of test compounds for VHL in cells by competitive displacement of a VHL NanoBRET™ tracer reversibly bound to a NanoLuc® VHL fusion protein stably expressed in the cells.
(§2) 50 nL of control compound (10 mM; parental unlabeled VHL antagonist; see structure below) and 50 nL of DMSO (negative control) were dispensed into the appropriate control wells. DMSO was backfilled to a final volume of 50 nL as required. […] Max Signal control wells consisted of DMSO only treated wells. Minimum Signal control wells contained of 10 uM parental unlabeled VHL antagonist (control compound—see structure below). […] Background Signal control wells were prepared without tracer for background correction steps.
(§3) The raw BRET ratio values were calculated by dividing the acceptor emission value (610 nm) by the donor emission value (460 nm) for each sample. To correct for background, the BRET ratio in the absence of tracer (average of no-tracer control samples) was subtracted from the BRET ratio of each sample. Raw BRET units were converted to milliBRET units (mBU) by multiplying each raw BRET value by 1,000. The normalized NanoBRET™ signal was calculated relative to the Max Signal control wells (DMSO treated control wells) and the Minimum Signal control wells. Percentage inhibition was calculated relative to the Minimum Signal control and Maximum Signal control wells. IC50 values were derived by four parameter curve fitting using the Robust method.

VHL [2] = molecular target: T1, VHL; assay: VHL nanoBRET (+ Digitonin); assay type: cell-based
Method: as §1, §2, §3

| SMILES | IC50 (VHL [1]) [nM] | Ratio cell permeability shift (VHL [1]) | EC50 (VHL [2]) [nM] |
| --- | --- | --- | --- |
| NC(=O)[C@@H](Cc1ccc(-c2ccccc2)cc1)NC(=O)[C@@H]1C[C@@H](O)CN1C(=O)[C@H](C1CCC1)n1cc(C2CC2)nn1 [Example S4, (2S,4R)—N—((R)-3-([1,1′-biphenyl]-4-yl)-1-amino-1-oxopropan-2-yl)-1-((S)-2-cyclobutyl-2-(4-cyclopropyl-1H-1,2,3-triazol-1-yl)acetyl)-4-hydroxypyrrolidine-2-carboxamide] | 190 | 0.96 | 200 |
| CC(C)(C)[C@@H](C(=O)N1C[C@H](O)C[C@H]1C(=O)N[C@H](Cc1ccc(-c2ccccc2)cc1)C(N)=O)n1cc(C(N)=O)nn1 [Example S16, 1-((S)-1-((2S,4R)-2-(((R)-3-([1,1′-biphenyl]-4-yl)-1-amino-1-oxopropan-2-yl)carbamoyl)-4-hydroxypyrrolidin-1-yl)-3,3-dimethyl-1-oxobutan-2-yl)-1H-1,2,3-triazole-4-carboxamide] | 3310 | 8.30 | 400 |
| Cc1ncsc1-c1ccc(CNC(=O)[C@@H]2C[C@@H](O)CN2C(=O)[C@@H](n2cc(C3CC3)nn2)C(C)(C)c2ccccc2)cc1 [Example S26, (2S,4R)-1-((S)-2-(4-cyclopropyl-1H-1,2,3-triazol-1-yl)-3-methyl-3-phenylbutanoyl)-4-hydroxy-N-(4-(4-methylthiazol-5-yl)benzyl)pyrrolidine-2-carboxamide] | 20 | 1.02 | 20 |
| CC(C)[C@@H](C(=O)N1C[C@H](O)C[C@H]1C(=O)N[C@H](Cc1ccc(-c2ccccc2)cc1)C(N)=O)n1nnc2ccccc21 (single isomer, unassigned) [Isomer A from Example S36] | 300 | 0.77 | 390 |
| CC(C)[C@H](C(=O)N1C[C@H](O)C[C@H]1C(=O)N[C@H](Cc1ccc(-c2ccccc2)cc1)C(N)=O)n1nnc2ccccc21 (single isomer, unassigned) [Isomer B from Example S36] | 68500 | 1.01 | 68000 |
| CCC(C)(C)[C@@H](C(=O)N1C[C@H](O)C[C@H]1C(=O)N[C@H](Cc1ccc(-c2ccccc2)cc1)C(N)=O)n1cc(C2CC2)nn1 [Example S6, (2S,4R)—N—((R)-3-([1,1′-biphenyl]-4-yl)-1-amino-1-oxopropan-2-yl)-1-((S)-2-(4-cyclopropyl-1H-1,2,3-triazol-1-yl)-3,3-dimethylpentanoyl)-4-hydroxypyrrolidine-2-carboxamide] | 100 | 0.76 | 140 |
| COC(=O)c1nnn([C@H](C(=O)N2C[C@H](O)C[C@H]2C(=O)N[C@H](Cc2ccc(-c3ccccc3)cc2)C(N)=O)C(C)C)c1C (single isomer, unassigned) [Isomer B from Example S33] | 1620 | 1.64 | 990 |
| Cc1ncsc1-c1ccc([C@H](C)NC(=O)[C@@H]2C[C@@H](O)CN2C(=O)[C@@H](n2cc(C3CC3)nn2)C(C)(C)C)cc1 [Example S18, (2S,4R)-1-((S)-2-(4-cyclopropyl-1H-1,2,3-triazol-1-yl)-3,3-dimethylbutanoyl)-4-hydroxy-N—((S)-1-(4-(4-methylthiazol-5-yl)phenyl)ethyl)pyrrolidine-2-carboxamide] | 10 | 0.85 | 10 |
| CC(C)[C@@H](C(=O)N1C[C@H](O)C[C@H]1C(=O)N[C@H](Cc1ccc(-c2ccccc2)cc1)C(N)=O)n1cc(-c2ccco2)nn1 [Example S39, (2S,4R)—N—((R)-3-([1,1′-biphenyl]-4-yl)-1-amino-1-oxopropan-2-yl)-1-((S)-2-(4-(furan-2-yl)-1H-1,2,3-triazol-1-yl)-3-methylbutanoyl)-4-hydroxypyrrolidine-2-carboxamide] | 110 | 0.93 | 110 |
| Cc1ncsc1-c1ccc(CNC(=O)[C@@H]2C[C@@H](O)CN2C(=O)[C@@H](n2cc(C3(C(F)(F)F)CC3)nn2)C(C)(C)C)cc1 [Example S28, (2S,4R)-1-((S)-3,3-dimethyl-2-(4-(1-(trifluoromethyl)cyclopropyl)-1H-1,2,3-triazol-1-yl)butanoyl)-4-hydroxy-N-(4-(4-methylthiazol-5-yl)benzyl)pyrrolidine-2-carboxamide] | 40 | 0.98 | 40 |
| Cc1nnn([C@H](C(=O)N2C[C@H](O)C[C@H]2C(=O)N[C@H](Cc2ccc(-c3ccccc3)cc2)C(N)=O)C(C)C)c1C [Example S37, (2S,4R)—N—((R)-3-([1,1′-biphenyl]-4-yl)-1-amino-1-oxopropan-2-yl)-1-((S)-2-(4,5-dimethyl-1H-1,2,3-triazol-1-yl)-3-methylbutanoyl)-4-hydroxypyrrolidine-2-carboxamide] | 1660 | 1.43 | 1160 |
| Cc1ncsc1-c1ccc(C(C)NC(=O)[C@@H]2C[C@@H](O)CN2C(=O)[C@@H](n2cc(C3CC3)nn2)C(C)(C)C)c(Cl)c1 (stereo partly drawn) [Example S22, (2S,4R)—N-(1-(2-chloro-4-(4-methylthiazol-5-yl)phenyl)ethyl)-1-((S)-2-(4-cyclopropyl-1H-1,2,3-triazol-1-yl)-3,3-dimethylbutanoyl)-4-hydroxypyrrolidine-2-carboxamide] | 10 | 0.72 | 10 |
| Cc1ncsc1-c1ccc(CNC(=O)[C@@H]2C[C@@H](O)CN2C(=O)[C@@H](n2cc(C3(c4cn([C@H](C(=O)N5C[C@H](O)C[C@H]5C(=O)NCc5ccc(-c6scnc6C)cc5)C(C)(C)C)nn4)CC3)nn2)C(C)(C)C)cc1 [Compound 31, (2S,2'S,4R,4′R)-1,1′-((2S,2'S)-2,2′-(cyclopropane-1,1-diylbis(JH-1,2,3-triazole-4,1-diyl))bis(3,3-dimethylbutanoyl))bis(4-hydroxy-N-(4-(4-methylthiazol-5-yl)benzyl)pyrrolidine-2-carboxamide)] | 310 | 19.75 | 20 |
| Cc1c(C(=O)O)nnn1[C@H](C(=O)N1C[C@H](O)C[C@H]1C(=O)N[C@H](Cc1ccc(-c2ccccc2)cc1)C(N)=O)C(C)C [Example S35, 1-((S)-1-((2S,4R)-2-(((R)-3-([1,1′-biphenyl]-4-yl)-1-amino-1-oxopropan-2-yl)carbamoyl)-4-hydroxypyrrolidin-1-yl)-3-methyl-1-oxobutan-2-yl)-5-methyl-1H-1,2,3-triazole-4-carboxylic acid] | – | – | 13000 |
| Cc1c(C(=O)O)nnn1[C@@H](C(=O)N1C[C@H](O)C[C@H]1C(=O)N[C@H](Cc1ccc(-c2ccccc2)cc1)C(N)=O)C(C)C [Example S34, 1-((R)-1-((2S,4R)-2-(((R)-3-([1,1′-biphenyl]-4-yl)-1-amino-1-oxopropan-2-yl)carbamoyl)-4-hydroxypyrrolidin-1-yl)-3-methyl-1-oxobutan-2-yl)-5-methyl-1H-1,2,3-triazole-4-carboxylic acid] | – | – | > 100000 |
| Cc1ncsc1-c1ccc(CNC(=O)[C@@H]2C[C@@H](O)CN2C(=O)[C@H](C2CCCCC2)n2cc(C3CC3)nn2)cc1 [Example S25, (2S,4R)-1-((S)-2-cyclohexyl-2-(4-cyclopropyl-1H-1,2,3-triazol-1-yl)acetyl)-4-hydroxy-N-(4-(4-methylthiazol-5-yl)benzyl)pyrrolidine-2-carboxamide] | – | 0.67 | – |
